Where “and” joins values, the source holds several entries; their conditions need not be identical. Equal entries are not always repeated.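 Briefly, cells in 96-well plates were exposed to five compound concentrations for 48 h, and endpoints were estimated by linear interpolation. The concentration for 50% growth inhibition is given as GI50. The concentration for full growth arrest is given as TGI.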
Assays:
Test in all cases: NCI anticancer screen, dose series, 48 h
786-0 renal = test system: 786-0 renal
A498 renal = test system: A498 renal
DLD-1 colon = test system: DLD-1 colon
DMS 114 small cell lung = test system: DMS 114 small cell lung
HCC-2998 colon = test system: HCC-2998 colon
HL-60(TB) leukemia = test system: HL-60(TB) leukemia
LXFL 529 NSCLC = test system: LXFL 529 NSCLC
M19-MEL melanoma = test system: M19-MEL melanoma
MALME-3M melanoma = test system: MALME-3M melanoma
OVCAR-5 ovarian = test system: OVCAR-5 ovarian
SNB-78 CNS = test system: SNB-78 CNS
UO-31 renal = test system: UO-31 renal
KM20L2 colon = test system: KM20L2 colon

SMILES	TGI (786-0 renal)	TGI (A498 renal)	TGI (DLD-1 colon)	TGI (DMS 114 small cell lung)	TGI (HCC-2998 colon)	TGI (HL-60(TB) leukemia)	TGI (LXFL 529 NSCLC)	TGI (M19-MEL melanoma)	TGI (MALME-3M melanoma)	TGI (OVCAR-5 ovarian)	TGI (SNB-78 CNS)	TGI (UO-31 renal)	TGI (KM20L2 colon)	GI50 (786-0 renal)	GI50 (A498 renal)	GI50 (HCC-2998 colon)	GI50 (HL-60(TB) leukemia)	GI50 (MALME-3M melanoma)	GI50 (OVCAR-5 ovarian)	GI50 (UO-31 renal)
O=[N+]([O-])c1ccc(Cl)c(C2SCc3nc4ccccc4n32)c1 (stereo not given)	> 100 µM	> 100 µM	> 100 µM	> 100 µM	> 100 µM	78.5 µM	> 100 µM	> 100 µM	> 100 µM	> 100 µM	> 100 µM	66.1 µM	–	–	–	–	–	–	–	–
CCC1(CN(C)C)CC/C(=C\c2ccc3c(c2)OCO3)C1=O (stereo not given)	> 100 µM	> 100 µM	> 100 µM	–	> 100 µM	> 100 µM	> 100 µM	> 100 µM	> 100 µM	> 100 µM	> 100 µM	> 100 µM	> 100 µM	–	–	–	–	–	–	–
CCOC(=O)C(C)(C)Oc1ccc2c(-c3ccc(Cl)cc3)cc(=O)oc2c1	> 100 µM	> 100 µM	> 100 µM	> 100 µM	> 100 µM	> 100 µM	> 100 µM	> 100 µM	> 100 µM	–	–	> 100 µM	> 100 µM	–	–	–	–	–	–	–
CCOC(=O)C(C[Si](C)(C)C)P(=O)(OCC)OCC (stereo not given)	> 100 µM	–	> 100 µM	> 100 µM	> 100 µM	> 100 µM	> 100 µM	> 100 µM	> 100 µM	> 100 µM	> 100 µM	> 100 µM	> 100 µM	–	–	–	–	–	–	–
O=C1c2cc(CCl)sc2C(=O)c2ccsc21	2.88 µM	3.01 µM	2.16 µM	0.298 µM	3.04 µM	0.497 µM	0.609 µM	–	0.0781 µM	3.31 µM	0.746 µM	0.962 µM	2.84 µM	–	–	–	–	–	–	–
CC/C=C\CCC/C=C1/C(=O)C=C[C@@H]1C/C=C\CCCC(=O)O	15.1 µM	33.9 µM	–	–	3.39 µM	7.41 µM	–	–	26.6 µM	15.3 µM	–	5.58 µM	–	4.37 µM	18.4 µM	1.8 µM	2.75 µM	8.66 µM	4.85 µM	2.16 µM
c1ccc(-c2nc(N3CCNCC3)c3nc(-c4ccccc4)oc3n2)cc1	3.46 µM	2.76 µM	–	–	3.49 µM	4.08 µM	–	–	3.19 µM	3.15 µM	–	2.91 µM	–	1.63 µM	1.42 µM	1.81 µM	1.89 µM	1.7 µM	1.7 µM	1.53 µM
CC(=O)Nc1ccc(-c2nnc(SCC(=O)Nc3ccc(C)cc3)o2)cc1	33.4 µM	–	30.2 µM	28.2 µM	–	64.4 µM	30.5 µM	32.9 µM	30.8 µM	39.8 µM	34.7 µM	> 100 µM	36.5 µM	–	–	–	–	–	–	–
Oc1c(CN2CCCC2)cc(COCc2ccccc2)c2cccnc12	8.52 µM	15 µM	–	–	16.5 µM	8.95 µM	–	–	14.4 µM	21.2 µM	–	2.55 µM	–	2.22 µM	3.82 µM	3.72 µM	2.52 µM	3.35 µM	4.1 µM	0.158 µM
COc1ccc(/C=C\c2cc(OC)c(OC)c(OC)c2)c(NS(=O)(=O)c2ccc(C)cc2)c1O	30.2 µM	0.0805 µM	–	–	10.9 µM	2.06 µM	–	–	> 100 µM	> 100 µM	–	> 65.8 µM	–	0.129 µM	0.022 µM	0.0904 µM	0.0338 µM	16.8 µM	0.15 µM	0.335 µM
COc1ccc2c3c(c(OCCCN(C)C)nc2c1)-c1ccc(Cl)cc1C3=O	3.64 µM	16.5 µM	–	–	21 µM	64.2 µM	–	–	26.4 µM	22.9 µM	–	11.1 µM	–	1.76 µM	5.66 µM	5.19 µM	18.9 µM	10.7 µM	9.66 µM	1.51 µM
CC(C)C(N)(C(=O)O)c1ccccc1 (stereo not given)	> 100 µM	> 100 µM	–	–	> 100 µM	> 100 µM	–	–	> 100 µM	> 100 µM	–	> 100 µM	–	–	–	–	–	–	–	–
Cn1c(=O)c2[nH]c(COc3ccc(C(C)(C)C)cc3)nc2n(C)c1=O	> 100 µM	60.1 µM	–	–	> 100 µM	50.3 µM	–	–	58.8 µM	> 100 µM	–	89.5 µM	–	19.5 µM	4.94 µM	16.8 µM	10.6 µM	18.2 µM	24.2 µM	13.6 µM
Cc1nc(NC(=O)N2CCC[C@H]2C(N)=O)sc1-c1ccnc(C(C)(C)C(F)(F)F)c1	64.1 µM and > 10 µM	5.62 µM and 9.99 µM	–	–	49.9 µM and > 10 µM	37.3 µM and > 10 µM	–	–	22.4 µM and > 10 µM	57.4 µM and > 10 µM	–	36.7 µM and > 10 µM	–	11.1 µM and > 10 µM	1.34 µM and 2.07 µM	12.8 µM and 6.71 µM	1.04 µM and 0.289 µM	1.8 µM and > 10 µM	0.776 µM and 1.02 µM	2.48 µM and 2.07 µM
CC[C@@H]1OC2(C)CC(S(=O)(=O)c3ccccc3)CC1O2 (stereo not given in full)	> 100 µM	–	> 100 µM	> 100 µM	> 100 µM	> 100 µM	> 100 µM	> 100 µM	> 100 µM	> 100 µM	> 100 µM	> 100 µM	> 100 µM	–	–	–	–	–	–	–
CN(C)c1ccc(/C=C/c2ccnc3ccccc23)cc1	> 100 µM and 21.6 µM	> 100 µM and 24.8 µM	–	–	> 100 µM and 33 µM	> 100 µM and 16.8 µM	–	–	> 100 µM and 55.4 µM	> 100 µM and 49.6 µM	–	> 100 µM	–	3.77 µM	4.03 µM	5.95 µM	2.86 µM	11.2 µM	6.9 µM	12.1 µM
O=C(NNS(=O)(=O)c1cc(C(F)(F)F)cc(C(F)(F)F)c1)c1cnn(-c2ccc(Cl)cc2)c1C(F)(F)F	42.2 µM	29.3 µM	–	–	31 µM	45.6 µM	–	–	34.3 µM	33.5 µM	–	31.7 µM	–	18.1 µM	14.1 µM	16.4 µM	20.7 µM	16.9 µM	17.8 µM	15.8 µM

From PubChem BioAssay (NCI)
